# Reference: ChEMBL document CHEMBL3259799, “New melatonin-N,N-dibenzyl(N-methyl)amine hybrids: potent neurogenic agents with antioxidant, cholinergic, and neuroprotective properties as innovative drugs for Alzheimer's disease” (J Med Chem, 2014)
# Active and inactive are the calls of the source. No cut-off for these calls is given here.
# How the values were obtained:
# Rattus norvegicus [1] = species on record: Rattus norvegicus; assay: Neurogenic activity in Wistar rat Primary neural stem cells assessed as cell maturation by measuring TuJ1 at 10 uM after 48 hrs by DAPI staining-based immunohistochemistry; assay type: functional
# Rattus norvegicus [2] = species on record: Rattus norvegicus; assay: Neurogenic activity in Wistar rat Primary neural stem cells assessed as cell maturation by measuring MAP-2 at 10 uM after 48 hrs by DAPI staining-based immunohistochemistry; assay type: functional
# Homo sapiens = species on record: Homo sapiens; assay: Inhibition of human BuChE using butyrylthiocholine as substrate at 10 uM incubated for 5 mins prior to substrate addition measured after 5 mins by Ellman method
# [3] = Permeability of the compound by PAMPA; assay type: physicochemical; conditions: read-out: permeability
# [4] = Antioxidant activity assessed as oxygen radical absorbance capacity after 15 mins fluorescence assay relative to trolox; assay type: functional
# [5] = Cytotoxicity against human SH-SY5Y cells assessed as cell viability at 1 uM after 24 hrs by LDH assay relative to control; assay type: cell-based; conditions: read-out: Activity
# SH-SY5Y [6] = assay: Neuroprotective activity in human SH-SY5Y cells assessed as protection from rotenone/oligomycin A-induced mitochondrial ROS at 1 uM incubated for 24 hrs prior to rotenone/oligomycin A challenge measured after 24 hrs by LDH assay; assay type: functional
# Acetylcholinesterase = Acetylcholinesterase (Homo sapiens, UniProt P22303)
# Acetylcholinesterase, sequence (P22303 whole entry): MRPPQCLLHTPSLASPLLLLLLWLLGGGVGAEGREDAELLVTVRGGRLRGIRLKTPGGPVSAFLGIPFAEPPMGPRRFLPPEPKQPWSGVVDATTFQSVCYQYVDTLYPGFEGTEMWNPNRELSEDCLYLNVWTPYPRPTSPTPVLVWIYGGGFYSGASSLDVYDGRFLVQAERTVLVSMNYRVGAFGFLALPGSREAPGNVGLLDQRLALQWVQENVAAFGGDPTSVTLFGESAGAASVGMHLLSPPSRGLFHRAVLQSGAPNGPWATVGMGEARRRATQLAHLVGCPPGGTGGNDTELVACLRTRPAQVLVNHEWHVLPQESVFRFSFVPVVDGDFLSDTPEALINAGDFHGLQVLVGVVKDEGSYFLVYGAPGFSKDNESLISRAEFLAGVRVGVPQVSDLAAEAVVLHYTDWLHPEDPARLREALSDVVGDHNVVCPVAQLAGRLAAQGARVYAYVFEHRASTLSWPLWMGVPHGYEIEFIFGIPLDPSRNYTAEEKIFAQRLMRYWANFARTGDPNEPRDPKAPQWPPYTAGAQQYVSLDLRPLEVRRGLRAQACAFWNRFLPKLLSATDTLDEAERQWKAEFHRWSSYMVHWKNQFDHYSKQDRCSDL
# Description: Inhibition of human recombinant AchE using acetylthiocholine iodide as substrate incubated for 5 mins prior to substrate addition measured after 5 mins by Ellman method
# SH-SY5Y [7] = assay: Cytotoxicity against human SH-SY5Y cells at 10 uM after 48 hrs by MTT assay relative to control; assay type: cell-based
# SH-SY5Y [8] = assay: Cytotoxicity against human SH-SY5Y cells at 10 uM after 48 hrs by LDH assay relative to control; assay type: cell-based
SMILES,Activity (Rattus norvegicus [1]),Activity (Rattus norvegicus [2]),inhibition (Homo sapiens),Papp [3],Activity [4],"viability at 24 h, 1 µM [5]",Activity (SH-SY5Y [6]),IC50 (Acetylcholinesterase),Activity (SH-SY5Y [7]),Activity (SH-SY5Y [8])
CC(=O)NCCc1c(Cc2ccccc2)[nH]c2ccccc12,inactive,inactive,,,,,,,,
CN(Cc1ccc(C(=O)NCCc2c[nH]c3ccccc23)cc1)Cc1cccc(Cl)c1,,,38%,7.1 ×10⁻⁶ cm/s,2.9,100%,12%,5.1 µM,,
CN(Cc1ccccc1)Cc1ccc(C(=O)NCCc2c[nH]c3ccc(O)cc23)cc1,,,,5 ×10⁻⁶ cm/s,4.3,100%,12%,4.2 µM,,
COc1ccc2[nH]cc(CCNC(C)=O)c2c1,Active,Active,,,2.4,,,,,
CN(Cc1ccccc1)Cc1ccc(C(=O)NCCc2c[nH]c3ccccc23)cc1,,,,7.4 ×10⁻⁶ cm/s,3.2,100%,12%,1.9 µM,,
CN(Cc1ccccc1)Cc1ccc(C(=O)NCCc2c[nH]c3cc(F)ccc23)cc1,,,,6.6 ×10⁻⁶ cm/s,2.1,100%,12%,2.5 µM,,
COc1ccc2c(CCNC(=O)c3ccc(CN(C)Cc4ccccc4)cc3)c[nH]c2c1,,,,7.2 ×10⁻⁶ cm/s,1.5,100%,12%,4.1 µM,,
COc1ccccc1CN(C)Cc1ccc(C(=O)NCCc2c[nH]c3ccccc23)cc1,Active,Active,,8.8 ×10⁻⁶ cm/s,2.9,100%,12%,4.7 µM,Non-toxic,Non-toxic
COc1ccc2[nH]cc(CCNC(=O)c3ccc(CN(C)Cc4ccccc4Cl)cc3)c2c1,,,37%,5.9 ×10⁻⁶ cm/s,2.5,100%,27%,2.6 µM,,
COc1ccc2[nH]cc(CCNC(=O)c3ccc(CN(C)Cc4cccc(Cl)c4)cc3)c2c1,,,38%,7.9 ×10⁻⁶ cm/s,2.6,100%,12%,5.6 µM,,
COc1ccc2c(CCNC(=O)c3ccc(CN(C)Cc4cccc(Cl)c4)cc3)c[nH]c2c1,,,22%,7.9 ×10⁻⁶ cm/s,1.8,100%,12%,2.1 µM,,
COc1cccc(CN(C)Cc2ccc(C(=O)NCCc3c[nH]c4ccc(OC)cc34)cc2)c1,Active,Active,45%,8.7 ×10⁻⁶ cm/s,2.5,100%,40%,6.8 µM,Non-toxic,Non-toxic
COc1ccc2[nH]cc(CCNC(=O)c3ccc(CN(C)Cc4ccccc4OC)cc3)c2c1,,,47%,9.9 ×10⁻⁶ cm/s,2.4,100%,12%,5.4 µM,,
COc1ccc2[nH]cc(CCNC(=O)c3ccc(CN(C)Cc4ccccc4)cc3)c2c1,Active,Active,,7.1 ×10⁻⁶ cm/s,2.5,100%,36%,6.1 µM,Non-toxic,Non-toxic
COc1cccc(CN(C)Cc2ccc(C(=O)NCCc3c[nH]c4ccccc34)cc2)c1,,,,8.8 ×10⁻⁶ cm/s,2.7,100%,12%,3.8 µM,,
CN(Cc1ccc(C(=O)NCCc2c[nH]c3ccccc23)cc1)Cc1ccccc1Cl,,,38%,5.8 ×10⁻⁶ cm/s,2.8,100%,12%,3.8 µM,,
